Assay results reported in patent publication US20120301895A1, “METHODS OF MODULATING BINDING OF SON OF SEVENLESS TO PHOSPHATIDIC ACID AND IDENTIFYING COMPOUNDS THAT MODULATE SUCH BINDING” (THE RESEARCH FOUNDATION OF STATE UNIVERSITY OF NEW YORK, priority 2007, published 2012).

Experiments:
Ras = Ras activation pull-down assay in Cos1 cells transfected with HA-tagged Ras and Sos; format: cell-based
Protocol: In FIG. 14A, MDA-MB-231 cells were plated and then placed in media containing 0.5% media 24 hr later. 24 hr later, the cells were treated with either DMSO or honokiol (20 μM) as indicated for 2 hr. At this point the cells were harvested and lysates were prepared and treated with the immobilized Ras binding domain of Raf1 as in FIGS. 12A-C. Ras-GTP bound to the Raf1 binding domain was recovered and subjected to Western blot analysis using the Pan-Ras antibody. Total Ras in the cell lysates and actin levels were also examined by Western blot analysis. In FIG. 14B, MDA-MB-231 cells were plated and 24 hr later were shifted to media containing 0.5% serum. The cells were then treated with EGF (200 ng/ml) for 10 min. The cells were also treated with honokiol (20 μM) prior to the addition of EGF for the times indicated. The levels of GTP-bound Ras, total Ras, and actin were then determined as in FIG. 14A. In FIG. 14C, Cos1 cells were transfected with plasmids expressing HA-tagged Ras (50 ng) and Sos (500 ng) for 24 hours. The cells were placed in serum free media overnight in the presence of increasing concentration of honokiol. Cells were then collected and Ras activation was determined using the pull-down assay as above. Levels of Ras-GTP, Sos, and Ras were determined by Western blot analysis using an antibody that recognized HA. In FIG. 14D, Cos1 cells were tranfected with the plasmid expressing HA-tagged Ras (50 ng) for 24 hours. […] Cells were then stimulated with 100 ng/ml EGF for the indicated times (min) and Ras activation was determined as in FIG. 14A. […] Cells were then stimulated with 100 ng/ml EGF for the indicated times (min) and Ras activation was determined as in FIG. 14A. […]
To further establish that honokiol was suppressing Ras activation, the effect in Cos1 cells was examined where background Ras activation was lower. […] 24 hr later, the cells were then shifted to serum-free conditions in the presence of increasing concentrations of honokiol and the levels of Ras, Sos, and GTP-bound Ras was evaluated. […]

[1] = test system: PLD activity in MDA-MB-231 cells; assay: In vivo PLD activity (transphosphatidylation, PBt) in MDA-MB-231 cells; format: cell-based, human; conditions: honokiol 20 μM, 4 hr
Protocol: In FIG. 13A, MDA-MB-231 cells were plated as in FIGS. 12A-C and then shifted to either 10% serum or 0.5% serum overnight as indicated. Honokiol (20 μM) or control ethanol was then added for 4 hr as indicated, at which time the cells were harvested and the levels of PBt were determined as in FIGS. 12A-C. The experiment shown is representative of at least three independent experiments. In FIG. 13B, the effect of honokiol on the activity of PLD isoforms was measured using exogenous substrate assay as described previously (Henage et al., “Kinetic Analysis of a Mammalian Phospholipase D: Allosteric Modulation by Monomeric GTPases, Protein Kinase C, and Polyphosphoinositides,” J. Biol. Chem. 281:3408-17 (2006), which is hereby incorporated by reference in its entirety). […] The amount of background was determined and subtracted using a bovine serum albumin standard. […]
For in vivo PLD activity, cells were plated in 60 mm culture dishes in DMEM with 10% serum at a density that would allow them to grow to about 80% confluence after 2 days, then cells were shifted to DMEM containing 0.5% or 10% serum as indicated in the figure legends overnight. […] Briefly, PLD activity was measured by the release of [methyl-^3H] choline from [choline-methyl-^3H]dipalmitoyl-phosphatidylcholine. […]

C=CCc1ccc(O)c(-c2ccc(O)c(CC=C)c2)c1 [honokiol, Honokiol]
Ras-GTP levels (Ras; Cos1 cells with excess Sos, serum free overnight, at concentrations of 20 μM and higher): strongly suppressed
ability of EGF to increase the level of GTP-bound Ras (Ras; Cos1 cells, endogenous Sos, ectopic Ras, honokiol 50 μM, EGF 100 ng/ml): suppressed
effect on EGF-induced Ras activation when ectopically expressed Sos was introduced (Ras; Cos1 cells, honokiol 50 μM, EGF 100 ng/ml): more pronounced
PLD activity in cells in 0.5% serum (stress-induced) ([1]; 0.5% serum): completely suppressed
basal PLD activity in cells maintained in 10% serum ([1]; 10% serum): little effect
